We go through 13 molecules from ChEMBL document CHEMBL1201862, “PubChem BioAssay data set” (2004).

Test in all cases: NCI anticancer screen, dose series, 48 h
The test system of assay [1] is A498.
Assay [2] relates to CAKI-1.
The test system of assay [3] is DU-145.
In assay [4] the test system is Hs-578T.
Assay [5] deals with MCF7.
In assay [6] the test system is MDA-MB-231.
For assay [7], the system named is MDA-MB-435.
The subject of assay [8] is MDA-N.
For assay [9], the system named is NCI/ADR-RES.
Assay [10] relates to PC-3.
Assay [11] deals with SNB-75.
Assay [12] concerns T47D.
Assay [13] has as its system 786-0.
Assay [14] concerns NCI-H226.
Assay [15] has as its system NCI-H522.
The test system of assay [16] is OVCAR-5.
Assay [17] concerns SK-MEL-2.
Assay [18] has as its system SR.
The subject of assay [19] is BT-549.

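96-well plates; 48 h exposure; 5 concentrations. Endpoints by linear interpolation between flanking doses. Not reached: highest tested concentration assigned. Abbreviation: GI50, concentration required for 50% inhibition of growth.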 The source made the active and inactive calls. No stated cut-off is given here; in the data, active = GI50 up to about 1.1 µM and inactive = higher.

On to `COc1ccc(C(CC(=O)c2cccs2)C(=O)c2ccc3c(c2)OCO3)cc1` (stereo unspecified), for which the GI50 was 72.1 µM (inactive) in assay [1]; > 100 µM (inactive) in [2]; > 100 µM (inactive) in assay [3]; > 100 µM (inactive) in assay [4]; > 100 µM (inactive) in assay [5]; > 100 µM (inactive) in [6]. Moreover, the GI50 in assay [7] is > 100 µM (inactive); in [8] it was > 100 µM (inactive); in assay [9], > 100 µM (inactive); in assay [10] it was > 100 µM (inactive); in assay [11], > 100 µM (inactive); in [12], 69.5 µM (inactive).

For the molecule `O=C1Nc2ccccc2/C1=N/NC(=S)Nc1ccccc1Cl`, the GI50 in assay [13] is 1.77 µM (inactive); in [1], 7.96 µM (inactive); in assay [2], 3.8 µM (inactive); in [3], 9.27 µM (inactive); in assay [4], 2.67 µM (inactive); in [5] it was 3.4 µM (inactive). Besides, the GI50 in assay [6] is 11.3 µM (inactive); in [7], 10.8 µM (inactive); in assay [8] it was 20.6 µM (inactive); in assay [14] it was 10.1 µM (inactive); in [15], 11.9 µM (inactive); in [9] it was 0.384 µM (active). Further, the GI50 was 26.5 µM (inactive) in assay [16]; 5.93 µM (inactive) in assay [10]; 13.8 µM (inactive) in [17]; 2.82 µM (inactive) in assay [11]; < 0.01 µM (active) in assay [18]; 11.6 µM (inactive) in assay [12].

Turning to `CN1CC(c2ccccc2)N(CCCCN2CC(c3ccccc3)N(C)CC2c2ccccc2)CC1c1ccccc1` (stereo unspecified), the GI50 in assay [13] was 73.5 µM (inactive); in assay [1], 36 µM (inactive); in [19], 37 µM (inactive); in assay [2], > 100 µM (inactive); in [3], 36.2 µM (inactive); in [4], 73.1 µM (inactive). Further, the GI50 is 68.7 µM (inactive) in assay [5]; 58.7 µM (inactive) in assay [6]; 36.1 µM (inactive) in assay [7]; 32.1 µM (inactive) in assay [8]; 95.7 µM (inactive) in assay [14]; 53.8 µM (inactive) in [9]. The GI50 is > 100 µM (inactive) in assay [16]; 18.2 µM (inactive) in assay [10]; 30.9 µM (inactive) in assay [17]; 29.4 µM (inactive) in assay [11]; 68.5 µM (inactive) in assay [18].

In the case of `O=C1c2ccccc2C(=O)c2c(OCCOCCO)cccc21`, the GI50 is > 100 µM (inactive) in assay [13]; > 100 µM (inactive) in assay [19]; 21.9 µM (inactive) in assay [2]; > 100 µM (inactive) in assay [3]; 20.5 µM (inactive) in assay [4]; 74.6 µM (inactive) in assay [5]. Besides, the GI50 in assay [6] is 0.935 µM (active); in [7], > 100 µM (inactive); in assay [15], 52.6 µM (inactive); in assay [9], > 100 µM (inactive); in assay [16] it was > 100 µM (inactive); in assay [10] it was 38.1 µM (inactive). The GI50 is > 100 µM (inactive) in assay [17], > 100 µM (inactive) in assay [11], 66.7 µM (inactive) in [18] and 49.4 µM (inactive) in assay [12].

As for `Cn1c2ncccc2n2c(=O)cc(O)cc12`, the GI50 in assay [13] is > 100 µM (inactive); in assay [1], 64.7 µM (inactive); in assay [19], 94.4 µM (inactive); in assay [2], 32.4 µM (inactive); in assay [3] it was > 100 µM (inactive); in assay [5], 33.9 µM (inactive). Also, the GI50 is 32.4 µM (inactive) in assay [6]; 53.3 µM (inactive) in assay [7]; 81.1 µM (inactive) in assay [8]; 30.1 µM (inactive) in [14]; 44 µM (inactive) in assay [15]; 81.5 µM (inactive) in assay [9]. Besides, the GI50 was 88.3 µM (inactive) in assay [16]; 56.4 µM (inactive) in [10]; 39.6 µM (inactive) in [17]; 24.4 µM (inactive) in assay [11]; > 100 µM (inactive) in assay [18]; 24.1 µM (inactive) in assay [12].

For `O=c1cc(O)ccn1C1C=C(CO)C(O)C1O` (stereo unspecified), the GI50 in [2], in assay [5], in assay [14], in assay [9], in [17] and in assay [11] was > 625 µM (inactive) throughout.

`COc1ccc(OC)c2c1C(=O)C(Cl)=C(N1CCN(CCOCCO)CC1)C2=O`: the GI50 is 5.78 µM (inactive) in assay [13]; 16.9 µM (inactive) in assay [1]; 14.8 µM (inactive) in assay [19]; 18.6 µM (inactive) in assay [3]; 16.1 µM (inactive) in [4]; 6.12 µM (inactive) in assay [5]. For the same molecule, the GI50 in assay [6] was 13.9 µM (inactive); in assay [7], 14.4 µM (inactive); in assay [14], 16.7 µM (inactive); in [15], 4.3 µM (inactive); in assay [9] it was 26.5 µM (inactive); in assay [16], 21 µM (inactive). Besides, the GI50 in assay [10] is 6.37 µM (inactive); in assay [11] it was 15.9 µM (inactive); in assay [18] it was 3.21 µM (inactive); in [12], 4.65 µM (inactive).

Consider `CCOP(=O)(OCC)C(Cc1ccc(OC)c(OC)c1)N=C(c1ccccc1)c1ccccc1` (stereo unspecified), for which the GI50 was 56.8 µM (inactive) in assay [1]; > 100 µM (inactive) in assay [19]; 67 µM (inactive) in assay [2]; 37.2 µM (inactive) in [3]; 24.7 µM (inactive) in assay [5]; 42.3 µM (inactive) in assay [6]. Also, the GI50 was 71 µM (inactive) in assay [7]; 59.8 µM (inactive) in [8]; 88.1 µM (inactive) in assay [14]; 22.8 µM (inactive) in assay [15]; 44.7 µM (inactive) in assay [9]; 70.5 µM (inactive) in [16]. For the same molecule, the GI50 was 32.4 µM (inactive) in assay [10], 27.5 µM (inactive) in assay [11], 6.84 µM (inactive) in assay [18] and 20.5 µM (inactive) in assay [12].

In the case of `COc1ccc(-c2cc(O)c3c(C)cc(C)nc3n2)cc1`, the GI50 in [1] was 30.5 µM (inactive); in [19], 26.4 µM (inactive); in [2], 22.9 µM (inactive); in assay [3], 48.4 µM (inactive); in [4], 27.7 µM (inactive); in assay [5], 15.3 µM (inactive). Further, the GI50 in assay [6] was 17.7 µM (inactive); in [14] it was 35 µM (inactive); in assay [15], 38.1 µM (inactive); in assay [9], 33.4 µM (inactive); in assay [16], > 100 µM (inactive); in assay [17], 43.1 µM (inactive). For the same molecule, in assay [12], the GI50 was 28.2 µM (inactive).

For the molecule `C[C@H]1COC2(c3ccccc3)CCC(=O)N12` (stereo partly specified), the GI50 in assay [13], in assay [1], in assay [2], in [16], in [17] and in [11] was > 100 µM (inactive) throughout. Also, in [18], the GI50 was > 100 µM (inactive).

Turning to `Nc1nccc2c1ncn2[C@H]1C[C@H](O)[C@@H](CO)O1`, the GI50 in assay [1], in assay [19], in assay [2], in assay [3], in [4] and in assay [5] was > 100 µM (inactive) in each case. The GI50 in assay [6], in assay [7], in [8], in assay [14], in assay [9] and in assay [16] was > 100 µM (inactive) in each case. Moreover, the GI50 in assay [10], in [17], in assay [11], in assay [18] and in [12] was > 100 µM (inactive) each time.

`C/C1=C\[C@@H](C)C[C@@H](C)OC(=O)[C@@H](C)NC(=O)[C@H](Cc2ccc(O)c(Br)c2)N(C)C(=O)CNC(=O)[C@H](C)C1`: the GI50 in assay [13] is < 0.0136 µM (active); in assay [1], < 0.0106 µM (active); in [19], 0.0641 µM (active); in assay [2], < 0.01 µM (active); in [3], 0.363 µM (active); in assay [4] it was < 0.0136 µM (active). Moreover, the GI50 in assay [5] is 0.182 µM (active); in [6], < 0.01 µM (active); in assay [7], < 0.01 µM (active); in [8], < 0.0304 µM (active); in [15], < 0.01 µM (active); in [9], 0.0366 µM (active). In addition, the GI50 was 13 µM (inactive) in assay [16], < 0.01 µM (active) in assay [10], < 0.01 µM (active) in [11] and 0.126 µM (active) in assay [12].

As for `CCOC(=O)CCC(NC(=O)c1ccc(Nc2nc3cc(C(F)(F)F)ccc3nc2C(=O)OCC)cc1)C(=O)OCC` (stereo unspecified), the GI50 in assay [13] was 2.44 µM (inactive); in assay [19] it was 16.3 µM (inactive); in assay [3], 78.9 µM (inactive); in assay [5] it was > 10 µM (inactive); in assay [6], 12.5 µM (inactive); in assay [7], 6.87 µM (inactive). Besides, the GI50 in assay [8] is 6.9 µM (inactive); in assay [15], 11.2 µM (inactive); in assay [9] it was 12.2 µM (inactive); in assay [16], 16.6 µM (inactive); in assay [10], 9.55 µM (inactive); in assay [17], 14.1 µM (inactive). Further, the GI50 in assay [18] is > 100 µM (inactive); in [12] it was 6.25 µM (inactive).
